Where “and” joins values, the source holds several entries; their conditions need not be identical. Equal entries are not always repeated. *1 amine or outer side, *2 acyl side, *3 side chain or, on linkers, in order; H or OH if unused. Where a SMILES comes first, the peptide text is derived from it. Side-chain parts run from the residue outwards. [ ]: non-standard residue; d: D form. The star is where a group is joined. γGlu = O=C(O)[C@H](CCC(=O)[*:2])N[*:1]; Palmitoyl = CCCCCCCCCCCCCCCC(=O)*; Aib = CC(C)(N)C(=O)O
Experiments:
[1] = target: T1, endogenous glucagon receptor (Rattus norvegicus, UniProt P30082); test: Agonistic activity on endogenous glucagon receptor (glycogen synthesis rate in primary rat hepatocytes); format: cell-based; conditions: inhibition of glycogen synthesis rate, 3 hours, read-out: EC50 GLP-1R Rat hepat.
T1 construct: Agonistic activity of the test compounds on endogenous glucagon receptor; endogenous in cells; host or cells: primary rat hepatocytes
T1 sequence (P30082 27-485): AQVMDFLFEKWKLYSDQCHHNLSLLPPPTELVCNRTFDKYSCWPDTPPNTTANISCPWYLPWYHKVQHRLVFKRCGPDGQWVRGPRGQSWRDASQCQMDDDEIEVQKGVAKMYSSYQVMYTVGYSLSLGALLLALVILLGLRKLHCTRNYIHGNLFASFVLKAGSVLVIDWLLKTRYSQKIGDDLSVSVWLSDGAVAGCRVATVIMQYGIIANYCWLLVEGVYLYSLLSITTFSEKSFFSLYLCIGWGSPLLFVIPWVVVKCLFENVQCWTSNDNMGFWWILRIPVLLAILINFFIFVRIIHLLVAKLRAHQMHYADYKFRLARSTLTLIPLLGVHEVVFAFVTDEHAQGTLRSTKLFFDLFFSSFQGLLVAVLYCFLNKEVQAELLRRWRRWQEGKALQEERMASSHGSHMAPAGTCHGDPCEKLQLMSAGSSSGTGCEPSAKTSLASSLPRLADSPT
Method in brief: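 Primary rat hepatocytes (40,000 cells/well, cultured 24 h) incubated 3 h with compound in KRBH buffer with 0.1% BSA, 22.5 mM glucose and D-[U14C]glucose. 14C incorporated into precipitated glycogen counted, background-subtracted and expressed as % of 0.1% DMSO vehicle (100% CTL). pEC50 from cpm versus log concentration; agonism lowers glycogen synthesis.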

[2] = target: T2, endogenous GLP-1 receptors (Mus musculus, UniProt O35659); test: Agonistic activity on endogenous GLP-1 receptor (cAMP, murine insulinoma cell line); format: cell-based; conditions: intracellular cAMP, 15 minutes at 26° C.; read-out: EC50 GLP-1R (murine insulinoma cells)
T2 construct: Agonistic activity of the test compounds on endogenous GLP-1 receptors; endogenous in cells
T2 sequence (O35659 22-463): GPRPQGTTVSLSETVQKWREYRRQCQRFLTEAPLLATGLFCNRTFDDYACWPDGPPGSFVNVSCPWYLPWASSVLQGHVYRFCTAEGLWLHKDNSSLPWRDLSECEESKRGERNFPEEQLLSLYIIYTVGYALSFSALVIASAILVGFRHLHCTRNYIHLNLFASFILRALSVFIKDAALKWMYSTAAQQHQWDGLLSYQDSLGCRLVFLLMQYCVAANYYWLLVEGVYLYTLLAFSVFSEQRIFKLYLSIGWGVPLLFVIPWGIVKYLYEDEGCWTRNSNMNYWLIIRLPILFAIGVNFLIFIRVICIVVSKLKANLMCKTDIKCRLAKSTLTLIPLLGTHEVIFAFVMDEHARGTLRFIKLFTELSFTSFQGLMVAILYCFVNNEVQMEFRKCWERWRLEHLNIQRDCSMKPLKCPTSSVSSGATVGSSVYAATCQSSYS
Method in brief: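 Murine insulinoma cells were exposed 15 min at 26° C in KRBH with 0.1% DMSO to compound or GLP-1 ([…]), then cAMP was measured by AlphaScreen against a standard curve, in quadruplicate. pEC50 came from curve fits; % CTL was normalised to the maximal GLP-1 cAMP response.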

[3] = Oral glucose tolerance test (OGTT); format: in vivo, C57BL/6J mice; conditions: blood glucose AUC 0-120 min, 10 nmol/kg s.c. 4 h before oral glucose 2 g/kg
Protocol: Male C57BL/6J mice were fasted for 10 h before they received an oral glucose bolus of 2 g/kg body weight. Peptides were dissolved in saline buffered with 25 mM phosphate and administered at a dose of 10 nmol/kg body weight by subcutaneous injection 4 h before the glucose bolus. Control animals received a vehicle injection only. Group size was 7 animals per group. A pre-dose and a pre-glucose (0 min) blood sample were obtained by tail bleeding and blood glucose was measured with a glucometer. Additional samples of tail blood for measuring blood glucose were obtained 15 min, 30 min, 60 min, 90 min and 120 min after the glucose challenge. […] Calculation of AUC was done by the trapezoidal rule without baseline correction. The data are presented as mean±S.E.M. Statistical comparisons were conducted by one-way ANOVA followed by Tukey's post test. Vehicle alone was used as a control.

Row | Compound | EC50 [1] | EC50 [2] | AUC (% Ctrl) [3]
1 | CCCCCCCCCCCCCCCC(=O)N[C@@H](CCC(=O)NCCCC[C@H](NC(=O)[C@H](CCC(=O)O)NC(=O)[C@H](CC(=O)O)NC(=O)[C@H](CC(C)C)NC(=O)[C@H](Cc1ccc(O)cc1)NC(=O)[C@H](CCCCN)NC(=O)[C@H](CO)NC(=O)[C@H](Cc1ccc(O)cc1)NC(=O)[C@H](CC(=O)O)NC(=O)[C@H](CO)NC(=O)[C@@H](NC(=O)[C@H](Cc1ccccc1)NC(=O)[C@@H](NC(=O)CNC(=O)[C@H](CCC(N)=O)NC(=O)C(C)(C)NC(=O)[C@@H](N)Cc1c[nH]cn1)[C@@H](C)O)[C@@H](C)O)C(=O)N[C@@H](C)C(=O)N[C@@H](C)C(=O)N[C@@H](CCCCN)C(=O)N[C@@H](CC(=O)O)C(=O)N[C@@H](Cc1ccccc1)C(=O)N[C@H](C(=O)N[C@@H](CCC(=O)O)C(=O)N[C@@H](Cc1c[nH]c2ccccc12)C(=O)N[C@@H](CC(C)C)C(=O)N[C@@H](CC(C)C)C(=O)N[C@@H](CO)C(=O)N[C@@H](C)C(N)=O)[C@@H](C)CC)C(=O)O [Compound 4, H-H-Aib-QGTFTSDYSKYLDE-K(Hexadecanoyl-isoGlu)-AAKDFIEWLLSA-NH2] (H-H[Aib]QGTFTSDYSKYLDEK([γGlu-Palmitoyl])AAKDFIEWLLSA-NH2) | 0.35 nM | 0.95 nM | 65 % Ctrl
2 | CCCCCCCCCCCCCCCC(=O)N[C@@H](CCC(=O)NCCCC[C@H](NC(=O)[C@H](CO)NC(=O)[C@H](CC(=O)O)NC(=O)[C@H](CC(C)C)NC(=O)[C@H](Cc1ccc(O)cc1)NC(=O)[C@H](CCCCN)NC(=O)[C@H](CO)NC(=O)[C@H](Cc1ccc(O)cc1)NC(=O)[C@H](CC(=O)O)NC(=O)[C@H](CO)NC(=O)[C@@H](NC(=O)[C@H](Cc1ccccc1)NC(=O)[C@@H](NC(=O)CNC(=O)[C@H](CCC(N)=O)NC(=O)C(C)(C)NC(=O)[C@@H](N)Cc1c[nH]cn1)[C@@H](C)O)[C@@H](C)O)C(=O)N[C@@H](C)C(=O)N[C@@H](C)C(=O)N[C@@H](Cc1c[nH]cn1)C(=O)N[C@@H](CC(=O)O)C(=O)N[C@@H](Cc1ccccc1)C(=O)N[C@H](C(=O)N[C@@H](CCC(=O)O)C(=O)N[C@@H](Cc1c[nH]c2ccccc12)C(=O)N[C@@H](CC(C)C)C(=O)N[C@@H](CCC(=O)O)C(=O)N[C@@H](CO)C(=O)N[C@@H](C)C(N)=O)C(C)C)C(=O)O [Compound 5, H-H-Aib-QGTFTSDYSKYLDS-K(Hexadecanoyl-isoGlu)-AAHDFVEWLESA-NH2] (H-H[Aib]QGTFTSDYSKYLDSK([γGlu-Palmitoyl])AAHDFVEWLESA-NH2) | 0.03 nM | 0.54 nM | 46 % Ctrl
3 | CCCCCCCCCCCCCCCC(=O)N[C@@H](CCC(=O)NCCCC[C@H](NC(=O)[C@H](CO)NC(=O)[C@H](CC(=O)O)NC(=O)[C@H](CC(C)C)NC(=O)[C@H](Cc1ccc(O)cc1)NC(=O)[C@H](CCCCN)NC(=O)[C@H](CO)NC(=O)[C@H](Cc1ccc(O)cc1)NC(=O)[C@H](CC(=O)O)NC(=O)[C@H](CO)NC(=O)[C@@H](NC(=O)[C@H](Cc1ccccc1)NC(=O)[C@@H](NC(=O)CNC(=O)[C@H](CCC(N)=O)NC(=O)C(C)(C)NC(=O)[C@@H](N)Cc1c[nH]cn1)[C@@H](C)O)[C@@H](C)O)C(=O)N[C@@H](C)C(=O)N[C@@H](C)C(=O)N[C@@H](Cc1c[nH]cn1)C(=O)N[C@@H](CC(=O)O)C(=O)N[C@@H](Cc1ccccc1)C(=O)N[C@H](C(=O)N[C@@H](CCC(=O)O)C(=O)N[C@@H](Cc1c[nH]c2ccccc12)C(=O)N[C@@H](CC(C)C)C(=O)N[C@@H](CC(C)C)C(=O)N[C@@H](CO)C(=O)O)C(C)C)C(=O)O [Compound 1, H-H-Aib-QGTFTSDYSKYLDS-K(Hexadecanoyl-isoGlu)-AAHDFVEWLLS-OH] (H-H[Aib]QGTFTSDYSKYLDSK([γGlu-Palmitoyl])AAHDFVEWLLS-OH) | 0.13 nM and 0.02 nM | 1.47 nM | 66 % Ctrl

Now from value to molecule, other results behind:

Row | EC50 [1] | EC50 [2] | Compound | AUC (% Ctrl) [3]
4 | 1.1 nM | 0.95 nM | CCCCCCCCCCCCCCCC(=O)N[C@@H](CCC(=O)NCCCC[C@H](NC(=O)[C@H](CO)NC(=O)[C@H](CC(=O)O)NC(=O)[C@H](CC(C)C)NC(=O)[C@H](Cc1ccc(O)cc1)NC(=O)[C@H](CCCCN)NC(=O)[C@H](CO)NC(=O)[C@H](Cc1ccc(O)cc1)NC(=O)[C@H](CC(=O)O)NC(=O)[C@H](CO)NC(=O)[C@@H](NC(=O)[C@H](Cc1ccccc1)NC(=O)[C@@H](NC(=O)CNC(=O)[C@H](CCC(N)=O)NC(=O)[C@H](CO)NC(=O)[C@@H](N)Cc1c[nH]cn1)[C@@H](C)O)[C@@H](C)O)C(=O)N[C@@H](C)C(=O)N[C@@H](C)C(=O)N[C@@H](Cc1c[nH]cn1)C(=O)N[C@@H](CC(=O)O)C(=O)N[C@@H](Cc1ccccc1)C(=O)N[C@H](C(=O)N[C@@H](CCC(=O)O)C(=O)N[C@@H](Cc1c[nH]c2ccccc12)C(=O)N[C@@H](CC(C)C)C(=O)N[C@@H](CC(C)C)C(=O)N[C@@H](CO)C(N)=O)C(C)C)C(=O)O [Compound 8, H-HSQGTFTSDYSKYLDS-K(Hexadecanoyl-isoGlu)-AAHDFVEWLLS-NH2] (H-HSQGTFTSDYSKYLDSK([γGlu-Palmitoyl])AAHDFVEWLLS-NH2) | 50 % Ctrl
5 | 0.17 nM | 0.3 nM | CCCCCCCCCCCCCCCC(=O)N[C@@H](CCC(=O)NCCCC[C@H](NC(=O)[C@H](CCC(=O)O)NC(=O)[C@H](CC(=O)O)NC(=O)[C@H](CC(C)C)NC(=O)[C@H](Cc1ccc(O)cc1)NC(=O)[C@H](CCCCN)NC(=O)[C@H](CO)NC(=O)[C@H](Cc1ccc(O)cc1)NC(=O)[C@H](CC(=O)O)NC(=O)[C@H](CO)NC(=O)[C@@H](NC(=O)[C@H](Cc1ccccc1)NC(=O)[C@@H](NC(=O)CNC(=O)[C@H](CCC(N)=O)NC(=O)C(C)(C)NC(=O)[C@@H](N)Cc1c[nH]cn1)[C@@H](C)O)[C@@H](C)O)C(=O)N[C@@H](C)C(=O)N[C@@H](C)C(=O)N[C@@H](CCCCN)C(=O)N[C@@H](CC(=O)O)C(=O)N[C@@H](Cc1ccccc1)C(=O)N[C@H](C(=O)N[C@@H](CCC(=O)O)C(=O)N[C@@H](Cc1c[nH]c2ccccc12)C(=O)N[C@@H](CC(C)C)C(=O)N[C@@H](CCC(=O)O)C(=O)N[C@@H](CO)C(=O)N[C@@H](C)C(N)=O)[C@@H](C)CC)C(=O)O [Compound 15, H-H-Aib-QGTFTSDYSKYLDE-K(Hexadecanoyl-isoGlu)-AAKDFIEWLESA-NH2] | 42 % Ctrl
6 | 2.87 nM | 1.14 nM | CCCCCCCCCCCCCCCC(=O)N[C@@H](CCC(=O)NCCCC[C@H](NC(=O)[C@H](CO)NC(=O)[C@H](CC(=O)O)NC(=O)[C@H](CC(C)C)NC(=O)[C@H](Cc1ccc(O)cc1)NC(=O)[C@H](CCCNC(=N)N)NC(=O)[C@H](CO)NC(=O)[C@H](Cc1ccc(O)cc1)NC(=O)[C@H](CC(=O)O)NC(=O)[C@H](CO)NC(=O)[C@@H](NC(=O)[C@H](Cc1ccccc1)NC(=O)[C@@H](NC(=O)CNC(=O)[C@H](CCC(N)=O)NC(=O)[C@H](CO)NC(=O)[C@@H](N)Cc1c[nH]cn1)[C@@H](C)O)[C@@H](C)O)C(=O)N[C@@H](C)C(=O)N[C@@H](C)C(=O)N[C@@H](CCC(=O)O)C(=O)N[C@@H](CC(=O)O)C(=O)N[C@@H](Cc1ccccc1)C(=O)N[C@H](C(=O)N[C@@H](CCC(=O)O)C(=O)N[C@@H](Cc1c[nH]c2ccccc12)C(=O)N[C@@H](CC(C)C)C(=O)N[C@@H](CC(C)C)C(=O)N[C@@H](CCCNC(=N)N)C(=O)N[C@@H](C)C(N)=O)C(C)C)C(=O)O [Compound 6, H-HSQGTFTSDYSRYLDS-K(Hexadecanoyl-isoGlu)-AAEDFVEWLLRA-NH2] (H-HSQGTFTSDYSRYLDSK([γGlu-Palmitoyl])AAEDFVEWLLRA-NH2) | 50 % Ctrl

Source: patent US10253081B2, “Glucagon analogues” (Zealand Pharma A/S, priority 2012, dated 2019)
